In publication PMC9856044 (Biomolecules, 2023):

Biological target: Tel22 (5′-AGGG(TTAGGG)3–3′) G-quadruplex
Assay: Fluorimetric titration with Tel22 in sodium cacodylate buffer (Na+ solution)
Assay type: binding, human
Description: Materials. Polynucleotides were purchased as noted: poly A–poly U, calf thymus ctDNA, poly(dAdT)2 and poly(dGdC)2 (Sigma-Aldrich, St. Louis, MI, USA). Polynucleotides were dissolved in Na-cacodylate buffer, I = 0.05 mol dm^−3, pH = 7.0. The calf thymus ctDNA was additionally sonicated and filtered through a […]. Polynucleotide concentration was determined spectroscopically as the concentration of phosphates. Spectrophotometric titrations were performed at pH = 7.0 (I = 0.05 mol dm^−3, sodium cacodylate buffer) by adding aliquots of polynucleotide solution into the solution of the studied compound for fluorimetric experiments and CD experiments were done by adding aliquots of the compound stock solution into the solution of a polynucleotide. In fluorimetric experiments, an excitation wavelength of λexc = 425, 431, 423, 427, 406 and 407 nm, respectively, was used to avoid the inner filter effect caused due to increasing absorbance of the polynucleotide. Emission was collected in the range λem = 400–700 nm. Values for Ka obtained by processing titration data using the Scatchard equation [27], all have satisfactory correlation coefficients (≥0.98).
Thermal melting curves for DNA, RNA and their complexes with studied compounds were determined as previously described by following the absorption change at 260 nm as a function of temperature. The absorbance of the ligands was subtracted from every curve and the absorbance scale was normalized. Tm values are the midpoints of the transition curves determined from the maximum of the first derivative and checked graphically by the tangent method. The ∆Tm values were calculated by subtracting Tm of the free nucleic acid from Tm of the complex. Every ∆Tm value here reported was the average of two measurements. The error in ∆Tm is ±0.5 °C. 5′-AGGG(TTAGGG)3–3′(Tel22) was obtained from IDT (Integrated DNA Technologies, Coralville, IA, USA). Tel22 was dissolved in 0.1 M either in sodium cacodylate or potassium phosphate buffer. The starting Tel22 oligonucleotide solution was first heated up to 95 °C for 10 min, then slowly cooled to 10 °C at the cooling rate of 1 °C/min to allow DNA oligonucleotide to adopt a G-quadruplex structure. The G-quadruplex structure was confirmed by thermal melting and CD spectra. The concentration of G quadruplex was expressed in terms of oligonucleotide structure. In fluorimetric titrations, aliquots of Tel 22 solution were added to the solution of ligands (c ~ 2 × 10^−7 M, in SI).
Binding constants (log Ka) and stoichiometry of complexes were calculated from the fluorimetric data using non-linear least-square program SPECFIT [46], in the concentration range that corresponded to 20–80% complex formed.

[1] = Tel22, sodium cacodylate buffer, pH = 7.0, I = 0.1 mol dm^−3, SPECFIT fit of fluorescence titration

For CN1/C(=C/c2[se]c3ccccc3[n+]2C)Sc2ccccc21 [Compound 3, 3-methyl-2-((3-methylbenzo[d]thiazol-2(3H)-ylidene)methyl)benzo[d][1,3]selenazol-3-ium methosulphate], the “logKa1 (L + G ⇆ LG)” value [1] was 7.26 ± 0.41, the “logKa2 (LG + G ⇆ LG2)” value [1] was 5.93 ± 0.47 and the “Selectivity for G-quadruplex over duplex DNA” value (binding affinities Tel22 vs duplex DNA, in both the Na+ and K+ solutions) was 100 fold.
